Key:
[1] = In vitro cytotoxicity assay (MTT cell viability) in HepG2 cells; format: cell-based, human; details: human
Procedure: To evaluate antiviral selectivity, the cytotoxic activity of each compound was determined using a standard cell viability assay performed on the parental HepG2 cell line. Cell viability was determined by measuring the conversion of 3-(4,5-dimethylthiazol-2-yl)-2,5-diphenyltetrazolium bromide (MTT) to the insoluble formazan salt crystal that occurs in live cells. Briefly, HepG2 cells were seeded in 96-well plates at a density of 20,000 cells per well in EMEM+10% FBS (complete growth medium) and allowed to adhere overnight in a 37° C., 5% CO2 humidified incubator. The next day, test agents were prepared by performing 8 half-log10 serial dilutions in 100% DMSO at 200× the final desired concentration in the assay. Compounds were tested over a range of concentrations from 30 μM to 1.0 nM in the assay. HepG2 cells were incubated in the presence of various concentrations of CAMs for 7 days in a 37° C., 5% CO2 humidified incubator. At the completion of the 7-day incubation period, MTT reagent was added to each well and the mixture was incubated for an additional 3-4 hours. At the completion of the incubation period, all wells were aspirated to remove the culture medium. The formazan crystals were solubilized from the cell monolayers with 100% DMSO. Plates were briefly mixed on an orbital shaker and absorbance was measured at 492 nm using a Perkin-Elmer EnVision multi-label plate reader. All absorbance values were converted to a percentage of the signal obtained from the vehicle treated controls. Absorbance values at 492 nm are directly proportional to the number of viable cells present in the sample. A CC50 value (cytotoxic concentration that results in loss of 50% cell viability) was calculated from the dose-response curve by 4-parameter, non-linear regression analysis using the GraphPad Prism software. The positive control compound, staurosporine, reduced the viability of HepG2 cells in a dose-dependent manner (CC50=100 nM).

[2] = system: HBV replication in HepAD38 cells; experiment: Anti-HBV replication assay in HepAD38 cells (QPCR of extracellular HBV DNA); format: cell-based, HBV (genotype D, serotype ayw); details: Hepatitis B virus, 168 h, 7 days incubation, extracellular HBV DNA by QPCR, read-out: Anti-HBV EC50
Procedure: The anti-HBV activity of the Capsid Assembly Modulators (CAMs) was evaluated in a cell based assay utilizing the human hepatoma cell line HepAD38 (Ladner, S K., et al., 1998). HepAD38 cells were derived from the parental line, HepG2, that were stably transfected with a construct containing an HBV genome (genotype D, serotype ayw) under the control of a tetracycline repressible CMV promoter. Upon removal of tetracycline, viral pre-genomic RNA (pgRNA) and mRNAs are expressed and infectious viral particles are assembled and secreted into the culture medium providing a reliable, robust system to measure multiple steps of the HBV life cycle. Disruption of capsid formation results in reduced levels of DNA-containing virus particles that are released into the culture supernatant. To quantify the effect of CAMs on HBV replication, we developed a sensitive QPCR-based assay that measures extracellular HBV DNA levels upon treatment of HepAD38 cells with various concentrations of test compounds.
HepAD38 cells were maintained in DMEM/F12 medium containing 10% FBS, 400 μg/mL G418 and 0.3 μg/mL tetracycline (tet+ media) to maintain repression of HBV replication. To evaluate each compound, HepAD38 cells were seeded into 24-well collagen coated culture plates (Corning BioCoat) at a density of 200,000 cells per well in 1 mL of medium without tetracycline (tet-media) and allowed to adhere overnight at 37° C., 5% CO2 in a humidified incubator. The following day, media was refreshed and a dose range of each compound was prepared by performing 1 log10 serial dilutions in 100% DMSO at 200× the desired assay concentration. Dilutions were then added to the cells resulting in a final dose range of 1 μM to 10 μM and the plates were returned to the incubator. Following 7 days of incubation, culture supernatants were harvested and HBV DNA levels were evaluated by QPCR and compared to the vehicle treated control wells (i.e. DMSO alone).
To quantify HBV DNA levels, cell culture supernatants were diluted 1:10 in sterile, nuclease-free water (Gibco). The diluted supernatants were subsequently added to a PCR master mix containing 1× Roche Light Cycler Master Mix, 0.5 μM forward primer, 0.5 μM reverse primer (Fwd: 5′-[…] (SEQ ID NO 1); Rev: 5′-[…] (SEQ ID NO 2)), 0.2 μM Roche Universal Probe Library Probe 25. The volume was brought to 20 μL with nuclease-free water and amplification of the HBV target sequence was performed using a Roche LightCycler 480 QPCR instrument. PCR extended out to 45 cycles with each cycle consisting of a denaturation step at 95° C. for 10 sec., followed by an annealing step at 60° C. for 10 sec. and a brief extension step at 72° C. for 1 sec.
Extracellular HBV DNA levels, expressed in copies/mL, were determined by comparison to a standard curve (10^2-10^9 copies/mL) using the Roche LightCycler analysis software. These values were subsequently converted to percent inhibition of HBV replication by dividing the HBV DNA levels in the experimental samples with those obtained from the vehicle control (˜1-2×10^5 copies/mL). Potency, expressed as an EC50 (the effective concentration required to inhibit 50% of HBV replication), was calculated from the dose-response curve using a 4-parameter non-linear regression analysis (GraphPad Prism). The nucleoside analog inhibitor entecavir was used as a positive control to validate each assay run. The EC50 value of entecavir in the HepAD38 assay was 0.5 nM, as previously reported in the literature.

SMILES | CC50 at 7 days [1] [nM] | EC50 [2] [nM]
Cc1cc(NC(=O)c2c(C)c(C(=O)C(=O)N[C@H]3CC[C@H](C(C)(C)O)CC3)n(C)c2C)ccc1F [Example 677, N-(4-fluoro-3-methylphenyl)-5-(2-(((1r,4r)-4-(2-hydroxypropan-2-yl)cyclohexyl)amino)-2-oxoacetyl)-1,2,4-trimethyl-1H-pyrrole-3-carboxamide] | > 30000 | < 50
Cc1cc(NC(=O)c2c(C)c(C(=O)C(=O)N[C@@H]3CCC[C@H]3O)n(C)c2C)ccc1F [Example 95, N-(4-fluoro-3-methylphenyl)-5-(2-(((1R,2R)-2-hydroxycyclopentyl)amino)-2-oxoacetyl)-1,2,4-trimethyl-1H-pyrrole-3-carboxamide] | > 30000 | < 50
Cc1cc(NC(=O)c2c(C)c(C(=O)C(=O)NCC(C)(C)O)n(C)c2C)ccc1F [Example 66, N-(4-fluoro-3-methylphenyl)-5-(2-((2-hydroxy-2-methylpropyl)amino)-2-oxoacetyl)-1,2,4-trimethyl-1H-pyrrole-3-carboxamide] | > 30000 | < 50
Cc1cc(NC(=O)c2c(C)c(C(=O)C(=O)NC3(CO)CC(F)(F)C3)n(C)c2C)ccc1F [Example 126, 5-(2-((3,3-difluoro-1-(hydroxymethyl)cyclobutyl)amino)-2-oxoacetyl)-N-(4-fluoro-3-methylpheenyl)-1,2,4-trimethyl-1H-pyrrole-3-carboxamide] | > 30000 | < 50
C#CCO[C@H]1CC[C@@H](NC(=O)C(=O)c2c(C)c(C(=O)Nc3ccc(F)c(C)c3)c(C)n2C)CC1 [Example 629, N-(4-fluoro-3-methylphenyl)-1,2,4-trimethyl-5-(2-oxo-2-(((1s,4s)-4-(prop-2-yn-1-yloxy)cyclohexxyl)amino)acetyl)-1H-pyrrole-3-carboxamide] | > 30000 | < 50
Cc1c(C(=O)NC2CCCC2)c2n(c1C(=O)C(=O)NC(C)(C)CO)CCCC2 [Example 754] | > 30000 | 50 to 499
Cc1cc(NC(=O)c2c(C)c(C(=O)C(=O)NC3(C(=O)NC(C)(C)CO)CCOCC3)n(C)c2C)ccc1F [Example 681, N-(4-fluoro-3-methylphenyl)-5-(2-((4-((1-hydroxy-2-methylpropan-2-yl)carbamoyl)tetrahydro-2H-pyran-4-yl)amino)-2-oxoacetyl)-1,2,4-trimethyl-1H-pyrrole-3-carboxamide] | > 30000 | < 50
O=C(N[C@H]1C[C@H](O)C1)C(=O)c1c(Cl)c(C(=O)Nc2ccc(F)c(Cl)c2)c2n1CCC2 [Example 555, 6-chloro-N-(3-chloro-4-fluorophenyl)-5-(2-(((1r,3r)-3-hydroxycyclobutyl)amino)-2-oxoacetyl)-2,3-dihydro-1H-pyrrolizine-7-carboxamide] | 5000 to 30000 | 50 to 499
CC(C)(O)CNC(=O)C(=O)c1c(Cl)c(C(=O)Nc2ccnc(F)c2)c2n1CCCC2 [Example 530, 2-chloro-N-(22-fluoropyridin-4-yl)-3-(22-((2-hydroxy-2-methylpropyl)amino)-2-oxoacetyl)-5,6,7,8-tetrahydroindolizine-1-carboxamide] | > 30000 | > 1000
Cc1cc(NC(=O)c2cc(C(=O)C(=O)NC3(CO)CC3)n3c2CCCC3)ccc1F [Example 420, N-(4-fluoro-3-methylphenyl)-3-(2-((1-(hydroxymethyl)cyclopropyl)amino)-2-oxoacetyl)-5,6,7,8-tetrahydroindolizine-1-carboxamide] | > 30000 | 50 to 499
Cc1cc(NC(=O)c2c(C)c(C(=O)C(=O)N[C@@H]3CC[C@H](O)[C@H]3O)n(C)c2C)ccc1F [Example 151, 5-(2-(((1R,2S,3S)-2,3-dihydroxycyclopentyl)amino)-2-oxoacetyl)-N-(4-fluoro-3-methylphenyl)-1,2,4-trimethyl-1H-pyrrole-3-carboxamide] | > 30000 | < 50
Cc1cc(NC(=O)c2c(C)c(C(=O)C(=O)NC3(CO)CCOC3)n(C)c2C)ccc1F (stereo not drawn) [Example 13, N-(4-fluoro-3-methylphenyl)-5-(2-((3-(hydroxymethyl)tetrahydrofuran-3-yl)amino)-2-oxoacetyl)-1,2,4-trimethyl-1H-pyrrole-3-carboxamide] | > 30000 | < 50
Cc1cc(NC(=O)c2c(Cl)c(C(=O)C(=O)N[C@H]3CCC[C@H]3O)n3c2CCC3)ccc1F [Example 547, 6-chloro-N-(4-fluoro-3-methylphenyl)-5-(2-(((1S,2R)-2-hydroxycyclopentyl)amino)-2-oxoacetyl)-2,3-dihydro-1H-pyrrolizine-7-carboxamide] | 5000 to 30000 | 50 to 499
Cc1cc(NC(=O)c2cc(C(=O)C(=O)N[C@H](C)C(F)(F)F)n3c2CCCC3)ccc1F [Example 408, (R)-N-(4-fluoro-3-methylphenyl)-3-(2-oxo-2-((1,1,1-trifluoropropan-2-yl)amino)acetyl)-5,6,7,8-tetrahydroindolizine-1-carboxamide] | > 30000 | 50 to 499
Cc1cc(NC(=O)c2cc(C(=O)C(=O)N[C@H](C)C(C)(F)F)n3c2CCCC3)ccc1F [Example 428, (R)-3-(2-((3,3-difluorobutan-2-yl)amino)-2-oxoacetyl)-N-(4-fluoro-3-methylphenyl)-5,6,7,8-tetrahydroindolizine--1 carboxamide] | > 30000 | 50 to 499
Cc1cc(NC(=O)c2c(C)c(C(=O)C(=O)NCC(C)(C)CO)n3c2CCCC3)cnc1F [Example 476, N-(6-fluoro-5-methylpyridin-3-yl)-3-(2-((3-hydroxy-2,2-dimethylpropyl)amino)-2-oxoacetyl)-2-methyl-5,6,7,8-tetrahydroindolizine-1-carboxamide] | 5000 to 30000 | > 1000
Cc1cc(NC(=O)c2c(C)c(C(=O)C(=O)NC(C)(C)c3noc(CN(C)C)n3)n(C)c2C)cnc1F [Example 200, 5-(2-((2-(5-((dimethylamino)methyyl)-1,2,4-oxadiazol-3-yl)propan-2-yl)amino)-2-oxoacetyl)-N-(6-fluoro-5-methylpyridin-3-yl)-1,2,4-trimethyl-1H-pyrrole-3-carboxamide] | > 30000 | 50 to 499
Cc1cc(NC(=O)c2cc(C(=O)C(=O)N[C@@H](C(=O)O)C(C)(C)C)n3c2CCCC3)ccc1F [Example 422, (R)-2-(2-(1-((4-fluoro-3-methylphenyl)carbamoyl)-5,6,7,8-tetrahydroindolizin-3-yl)-2-oxoacetamido)-3,3-dimethylbutanoic acid] | > 30000 | > 1000
